Measured values taken from US7138361B2, “Herbicidal heterocycles” (E. I. du Pont de Nemours and Company, priority 2000, dated 2006).

Experiments:
Format in all cases: in vivo
[1] = test system: barnyardgrass (Echinochloa crus-galli); experiment: Test B flooded paddy test; settings: Rate 1000 g/ha, scale of 0 to 100 where 0 is no effect and 100 is complete control, visually evaluated after 13 to 15 days
Procedure, shortened: (§1)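 Plants were grown to the 2-leaf stage in flooded paddy conditions before treatment with the formulated test chemicals. After 13 to 15 days in a greenhouse, each species was visually compared with untreated controls and rated from 0 (no effect) to 100 (complete control).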

[2] = test system: duck salad (Heteranthera limosa); experiment: Test B flooded paddy test; settings: Rate 1000 g/ha, scale of 0 to 100 where 0 is no effect and 100 is complete control, visually evaluated after 13 to 15 days
Procedure, shortened: as §1

rice (Oryza saliva) [3] = experiment: Test B flooded paddy test; settings: Rate 1000 g/ha, scale of 0 to 100 where 0 is no effect and 100 is complete control, visually evaluated after 13 to 15 days
Procedure, shortened: as §1

[4] = test system: smallflower flatsedge (Cyperus difformis); experiment: Test B flooded paddy test; settings: Rate 1000 g/ha, scale of 0 to 100 where 0 is no effect and 100 is complete control, visually evaluated after 13 to 15 days
Procedure, shortened: as §1

[5] = test system: cocklebur (Xanthium strumarium); experiment: Test C postemergence
Procedure, shortened: (§2)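 Preemergence: seeds sown then treated. Postemergence: plants 2–18 cm, 1- to 4-leaf. Both with surfactant-containing solvent formulation; visual injury scored 0–100 after 12–14 d.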

corn (Zea mays) = experiment: Test C postemergence
Procedure, shortened: as §2

[6] = test system: crabgrass (Digitaria sanguinalis); experiment: Test C postemergence
Procedure, shortened: as §2

[7] = test system: barnyardgrass (Echinochloa crus-galli); experiment: Test C flooded paddy test; settings: for Barnyardgrass plant response rating: scale 0 to 100, 0 no effect, 100 complete control
Procedure, shortened: (§3)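 Visual ratings (0 = no effect, 100 = complete control) were made 12–14 days after treatment, relative to greenhouse controls. Plants in the flooded paddy test were rice, smallflower flatsedge, duck salad and barnyardgrass, treated at the 2-leaf stage.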

[8] = test system: duck salad (Heteranthera limosa); experiment: Test C flooded paddy test; settings: for Ducksalad plant response rating: scale 0 to 100, 0 no effect, 100 complete control
Procedure, shortened: as §3

rice (Oryza saliva) [9] = experiment: Test C flooded paddy test; settings: for Rice plant response rating: scale 0 to 100, 0 no effect, 100 complete control
Procedure, shortened: as §3

[10] = test system: smallflower flatsedge (Cyperus difformis); experiment: Test C flooded paddy test; settings: for Flatsedge plant response rating: Flooded Paddy, scale 0 to 100, 0 no effect, 100 complete control; for Plant response rating, Flatsedge: flooded paddy test, scale 0 to 100 (0 no effect, 100 complete control)
Procedure, shortened: as §3

Nightshade = experiment: Test C preemergence; settings: visual evaluation after 12 to 14 days
Sunflower [11] = experiment: Test C preemergence; settings: scale 0 to 100, 0 no effect, 100 complete control
Sunflower [12] = experiment: Test C preemergence; settings: scale 0 to 100
[13] = test system: morning glory (Ipomoea spp.); experiment: Test A postemergence, sprayed to runoff; parameters: scale not given here; settings: Morningglory, approx. eleven days
Description: (§4) Seeds of barnyardgrass (Echinochloa crus-galli), crabgrass (Digitaria spp.), giant foxtail (Setaria viridis), morning glory (Ipomoea spp.), redroot pigweed (Amaranthus retroflexus) and velvetleaf (Abutilon theophrasti) were planted into a sandy loam soil and treated preemergence by soil drench with test chemicals formulated in a non-phytotoxic solvent mixture which included a surfactant. At the same time, these crop and weed species were also treated postemergence sprayed to runoff with test chemicals formulated in the same manner. Plants ranged in height from two to eighteen cm and were in the one- to two-leaf stage for the postemergence treatment. Treated plants and untreated controls were maintained in a greenhouse for approximately eleven days, after which time all treated plants were compared to untreated controls and visually evaluated for injury. Plant response ratings, summarized in Table A, are based on a 0 to 10 scale where 0 is no effect and 10 is complete control. A dash (-) response means no test results.

[14] = test system: velvetleaf (Abutilon theophrasti); experiment: Test A postemergence, sprayed to runoff; parameters: scale not given here; settings: approx. eleven days
Description: as §4

[15] = test system: barnyardgrass (Echinochloa crus-galli); experiment: Test A postemergence, sprayed to runoff; settings: approx. eleven days
Description: as §4

[16] = test system: crabgrass (Digitaria spp.); experiment: Test A postemergence, sprayed to runoff; settings: approx. eleven days
Description: as §4

[17] = test system: giant foxtail (Setaria viridis); experiment: Test A postemergence, sprayed to runoff; settings: approx. eleven days
Description: as §4

[18] = test system: redroot pigweed (Amaranthus retroflexus); experiment: Test A postemergence, sprayed to runoff; settings: approx. eleven days
Description: as §4

[19] = Rate 125 g/ha, scale 0 to 100, 0 no effect, 100 complete control
[20] = Rate 250 g/ha, scale 0 to 100 (0 no effect, 100 complete control)
[21] = Rate 500 g/ha, scale 0 to 100 (0 no effect, 100 complete control)
[22] = flooded paddy test, Rate 62 g/ha, scale 0 to 100 (0 no effect, 100 complete control)
[23] = flooded paddy test, Rate 125 g/ha, scale 0 to 100 (0 no effect, 100 complete control)
[24] = Flooded Paddy, Rate 500 g/ha, scale 0 to 100

Row | Structure (SMILES) | Plant response rating, Barnyardgrass [1] | Plant response rating, Ducksalad [2] | Plant response rating, Rice (rice (Oryza saliva) [3]) | Plant response rating, Flatsedge [4] | Barnyardgrass plant response rating ([7]; Flooded Paddy, Rate 250 g/ha) | Barnyardgrass plant response rating ([7]; Flooded Paddy, Rate 500 g/ha) | Plant response rating, Barnyardgrass [7, 22] | Plant response rating, Barnyardgrass [7, 23] | Ducksalad plant response rating ([8]; Flooded Paddy, Rate 250 g/ha) | Ducksalad plant response rating ([8]; Flooded Paddy, Rate 500 g/ha) | Plant response rating, Ducksalad [8, 22] | Plant response rating, Ducksalad [8, 23] | Rice plant response rating (rice (Oryza saliva) [9]; Flooded Paddy, Rate 250 g/ha) | Rice plant response rating (rice (Oryza saliva) [9]; Flooded Paddy, Rate 500 g/ha) | Plant response rating, Rice (rice (Oryza saliva) [9]; [22]) | Plant response rating, Rice (rice (Oryza saliva) [9]; [23]) | Flatsedge plant response rating ([10]; Rate 250 g/ha) | Flatsedge plant response rating ([10]; Rate 500 g/ha) | Plant response rating, Flatsedge ([10]; Rate 62 g/ha) | Plant response rating, Flatsedge ([10]; Rate 125 g/ha) | other results
1 | CCC(CC)c1ccn(C2SCN(c3cccc(C(F)(F)F)c3)C2=O)n1 (stereo not drawn) [Compound 25] | 100 | 100 | 90 | 100 | 100 | 100 | 100 | 100 | 100 | 100 | 100 | 100 | 60 | 80 | 30 | 20 | 100 | 100 | 100 | 100 | Plant response rating, Cocklebur [5, 19]: 60; Plant response rating, Cocklebur [5, 20]: 60; Plant response rating, Cocklebur [5, 21]: 60; Plant response rating, Corn (corn (Zea mays); [19]): 0; Plant response rating, Corn (corn (Zea mays); [20]): 20; Plant response rating, Corn (corn (Zea mays); [21]): 30; Plant response rating, Crabgrass [6, 19]: 30; Plant response rating, Crabgrass [6, 20]: 70; Plant response rating, Crabgrass [6, 21]: 90; Plant response rating (0 to 100), Nightshade (Nightshade; Rate 250 g/ha): 90; Plant response rating, Sunflower (Sunflower [11]; Rate 125 g/ha): 40; Plant response rating, Sunflower (Sunflower [12]; Rate 31 g/ha): 0
2 | CC(C)(C)c1ccn(C2SCN(c3cccc(C(F)(F)F)c3)C2=O)n1 (stereo not drawn) [Compound 1] |  |  |  |  | 30 |  | 20 | 80 | 90 |  | 60 | 90 | 0 |  | 0 | 0 | 100 | 100 | 90 | 100 | Plant response rating (visual injury vs untreated controls) ([13]; Rate 500 g/ha): 90; Plant response rating (visual injury vs untreated controls) ([13]; Rate 2000 g/ha): 90; Plant response rating (visual injury vs untreated controls) ([14]; Rate 500 g/ha): 10; Plant response rating (visual injury vs untreated controls) ([14]; Rate 2000 g/ha): 30; Plant response rating (visual injury vs untreated controls) ([15]; Rate 500 g/ha): 60; Plant response rating (visual injury vs untreated controls) ([15]; Rate 2000 g/ha): 90; Plant response rating (visual injury vs untreated controls) ([16]; Rate 500 g/ha): 10; Plant response rating (visual injury vs untreated controls) ([16]; Rate 2000 g/ha): 10; Plant response rating (visual injury vs untreated controls) ([17]; Rate 500 g/ha): 30; Plant response rating (visual injury vs untreated controls) ([17]; Rate 2000 g/ha): 30; Plant response rating (visual injury vs untreated controls) ([18]; Rate 500 g/ha): 20; Plant response rating (visual injury vs untreated controls) ([18]; Rate 2000 g/ha): 90; Plant response rating, Barnyardgrass [7, 24]: 100; Plant response rating, Ducksalad [8, 24]: 100; Plant response rating, Rice (rice (Oryza saliva) [9]; [24]): 50
3 | CC(C)(C)c1ccn(C2CCN(c3ccc(Cl)c(Cl)c3)C2=O)n1 (stereo not drawn) [Compound 34] | 100 | 100 | 30 | 100 | 80 | 80 | 0 | 40 | 70 | 100 | 20 | 50 | 0 | 20 | 0 | 0 | 90 | 100 | 70 | 90 | Plant response rating (0 to 100), Nightshade (Nightshade; Rate 250 g/ha): 0; Plant response rating, Sunflower (Sunflower [11]; Rate 125 g/ha): 0; Plant response rating, Sunflower (Sunflower [12]; Rate 31 g/ha): 0
4 | CC(C)(C)c1ccn(C2CCN(c3cccc(SC(F)(F)F)c3)C2=O)n1 (stereo not drawn) [Compound 93] | 100 | 100 | 50 | 100 | 60 | 70 | 0 | 50 | 100 | 100 | 0 | 90 | 20 | 80 | 0 |  | 100 | 100 | 0 | 100 | Plant response rating (0 to 100), Nightshade (Nightshade; Rate 500 g/ha): 10; Plant response rating, Sunflower (Sunflower [11]; Rate 250 g/ha): 0; Plant response rating, Sunflower (Sunflower [12]; Rate 62 g/ha): 0
